Laboratory results taken from ChEMBL document CHEMBL4393657, “Tetrazole hybrids and their antifungal activities” (2019).
Converted amounts (≈) assume the structure as drawn.

Experiments:
Format in all cases: functional
[1] = tested on: Nakaseomyces glabratus; assay: Antifungal activity against Candida glabrata assessed as reduction in fungal cell growth incubated for 24 hrs by broth microdilution method
[2] = tested on: Pichia kudriavzevii; assay: Antifungal activity against Candida krusei assessed as reduction in fungal cell growth incubated for 24 hrs by broth microdilution method
[3] = tested on: Candida albicans; assay: Antifungal activity against Candida albicans assessed as reduction in fungal cell growth incubated for 24 hrs by broth microdilution method
[4] = tested on: Candida tropicalis; assay: Antifungal activity against Candida tropicalis assessed as reduction in fungal cell growth incubated for 24 hrs by broth microdilution method
[5] = tested on: Candida albicans; assay: Antifungal activity against Candida albicans MTCC 227 assessed as reduction in fungal cell growth incubated for 24 and 48 hrs by broth microdilution method
[6] = tested on: Candida albicans; assay: Antifungal activity against Candida albicans assessed as reduction in fungal cell growth incubated for 24 and 72 hrs by cup plate method
[7] = tested on: Aspergillus flavus; assay: Antifungal activity against Aspergillus flavus assessed as reduction in fungal cell growth incubated for 24 and 72 hrs by cup plate method
[8] = tested on: Aspergillus flavus; assay: Antifungal activity against Aspergillus flavus NCIM 524 assessed as reduction in fungal cell growth incubated for 3 to 4 days by disk diffusion method
[9] = tested on: Candida parapsilosis; assay: Antifungal activity against Candida parapsilosis ATCC 22019 assessed as reduction in fungal cell growth incubated for 48 hrs by broth microdilution method; details: Lodderomyces parapsilosis, ATCC 22019, 48 h
[10] = tested on: Cryptococcus neoformans; assay: Antifungal activity against Cryptococcus neoformans LA314 assessed as reduction in fungal cell growth incubated for 48 hrs by broth microdilution method; details: LA314, 48 h
[11] = tested on: Talaromyces marneffei; assay: Antifungal activity against Penicillium marneffei assessed as reduction in fungal cell growth incubated for 3 to 4 days by disk diffusion method
[12] = tested on: Candida tropicalis; assay: Antifungal activity against Candida tropicalis assessed as reduction in fungal cell growth incubated for 48 hrs by broth microdilution method
[13] = tested on: Aspergillus niger; assay: Antifungal activity against Aspergillus niger assessed as reduction in fungal cell growth incubated for 72 hrs by broth microdilution method
[14] = tested on: Candida albicans; assay: Antifungal activity against Candida albicans assessed as reduction in fungal cell growth incubated for 48 hrs by broth microdilution method
[15] = tested on: Pichia kudriavzevii; assay: Antifungal activity against Candida krusei assessed as reduction in fungal cell growth incubated for 48 hrs by broth microdilution method
[16] = tested on: Nakaseomyces glabratus; assay: Antifungal activity against Candida glabrata assessed as reduction in fungal cell growth incubated for 48 hrs by broth microdilution method
[17] = tested on: Aspergillus fumigatus; assay: Antifungal activity against Aspergillus fumigatus NCIM 902 assessed as reduction in fungal cell growth incubated for 3 to 4 days by disk diffusion method
[18] = tested on: Trichophyton mentagrophytes; assay: Antifungal activity against Trichophyton mentagrophytes assessed as reduction in fungal cell growth incubated for 3 to 4 days by disk diffusion method
[19] = tested on: Aspergillus fumigatus; assay: Antifungal activity against Aspergillus fumigatus
[20] = tested on: Aspergillus flavus; assay: Antifungal activity against Aspergillus flavus
[21] = tested on: Aspergillus niger; assay: Antifungal activity against Aspergillus niger assessed as reduction in fungal cell growth incubated for 48 hrs by broth microdilution method
[22] = tested on: Aspergillus niger; assay: Antifungal activity against Aspergillus niger MTCC281 assessed as reduction in fungal cell growth incubated for 24 to 48 hrs
[23] = tested on: Candida albicans; assay: Antifungal activity against Candida albicans MTCC183 assessed as reduction in fungal cell growth incubated for 24 to 48 hrs
[24] = tested on: Candida albicans; assay: Antifungal activity against Candida albicans V-01-191A-261 assessed as reduction in fungal cell growth incubated for 48 hrs by broth microdilution method; details: V-01-191A-261, 48 h
[25] = tested on: Candida albicans; assay: Antifungal activity against Candida albicans
[26] = tested on: Aspergillus niger; assay: Antifungal activity against Aspergillus niger
[27] = tested on: Rhizopus arrhizus; assay: Antifungal activity against Rhizopus arrhizus
[28] = tested on: Mucor indicus; assay: Antifungal activity against Mucor indicus
[29] = tested on: Nakaseomyces glabratus; assay: Antifungal activity against Candida glabrata ATCC 36583 by broth microdilution method
[30] = tested on: Candida tropicalis; assay: Antifungal activity against Candida tropicalis by broth microdilution method

With `Fc1cc2nc(SCc3ccc(-c4ccccc4-c4nnnn4C(c4ccccc4)(c4ccccc4)c4ccccc4)cc3)[nH]c2cc1-n1ccnc1` the MIC [1] was 8 to 16 µg/mL (≈ 11.3 to 22.5 µM), the MIC [2] was 8 to 16 µg/mL (≈ 11.3 to 22.5 µM) and the MIC [3] was 8 to 16 µg/mL (≈ 11.3 to 22.5 µM). It also gave an MIC [4] of 8 to 16 µg/mL (≈ 11.3 to 22.5 µM).
With `COC1=CC(=O)C[C@@H](C)[C@]12Oc1c(Cl)c(OC)cc(OC)c1C2=O` [GRISEOFULVIN] the MIC [5] was 500 µg/mL (≈ 1420 µM), the MIC [6] was 10 µg/mL (≈ 28.3 µM) and the MIC [7] was 10 µg/mL (≈ 28.3 µM).
In the case of `CCC(C)n1ncn(-c2ccc(N3CCN(c4ccc(OCC5COC(Cn6cncn6)(c6ccc(Cl)cc6Cl)O5)cc4)CC3)cc2)c1=O` (configuration not stated) [ITRACONAZOLE], the MIC [8] is reported as 6.25 µg/mL (≈ 8.86 µM), the MIC [9] is reported as 0.007 to 0.5 µg/mL (≈ 0.00992 to 0.709 µM) and the MIC [10] is reported as 0.007 to 0.5 µg/mL (≈ 0.00992 to 0.709 µM). For the same compound, the MIC [11] was 6.25 µg/mL (≈ 8.86 µM), the MIC [12] was 0.007 to 0.5 µg/mL (≈ 0.00992 to 0.709 µM) and the MIC [13] was 0.007 to 0.5 µg/mL (≈ 0.00992 to 0.709 µM). The MIC [14] was 0.007 to 0.5 µg/mL (≈ 0.00992 to 0.709 µM), the MIC [15] was 0.007 to 0.5 µg/mL (≈ 0.00992 to 0.709 µM) and the MIC [16] was 0.007 to 0.5 µg/mL (≈ 0.00992 to 0.709 µM). The MIC [17] was 6.25 µg/mL (≈ 8.86 µM) and the MIC [18] was 6.25 µg/mL (≈ 8.86 µM).
`c1ccc(-n2nnnc2SCCCSc2nnnn2C2CC2)cc1` showed an MIC [8] of 6.25 to 50 µg/mL (≈ 17.3 to 139 µM), an MIC [11] of 6.25 to 50 µg/mL (≈ 17.3 to 139 µM) and an MIC [17] of 6.25 to 50 µg/mL (≈ 17.3 to 139 µM). It also gave an MIC [18] of 6.25 to 50 µg/mL (≈ 17.3 to 139 µM).
In the case of `CC[C@H]1O[C@@H](/C(C)=C/[C@H](C)/C=C/[C@@H]2[C@@H](C)[C@@H]2/C=C/[C@@H]2O[C@H](Cc3nn[nH]n3)C[C@H](N(C)C)[C@H]2O)CC=C1C`, the MIC [19] is reported as 1.5 µg/mL (≈ 2.85 µM) and the MIC [20] is reported as 1.5 µg/mL (≈ 2.85 µM).
Compound `O=[N+]([O-])c1cccc(C2c3ccc4ccccc4c3Oc3[nH]c(=S)n4nnnc4c32)c1` (configuration not stated) has an MIC [14] of 50 to 400 µg/mL (≈ 117 to 934 µM) and an MIC [21] of 50 to 400 µg/mL (≈ 117 to 934 µM).
Compound `Cc1ccc(C2c3ccc4ccccc4c3Oc3[nH]c(=S)n4nnnc4c32)cc1` (configuration not stated) has an MIC [14] of 50 to 400 µg/mL (≈ 126 to 1010 µM) and an MIC [21] of 50 to 400 µg/mL (≈ 126 to 1010 µM).
For `c1cnc(-c2nn3nnnc3o2)cn1`, the MIC [22] was 100 µg/mL (≈ 529 µM) and the MIC [23] was 50 µg/mL (≈ 264 µM).
Compound `CCn1nnnc1SCCCSc1nnnn1-c1ccccc1` has an MIC [8] of 6.25 to 50 µg/mL (≈ 17.9 to 143 µM), an MIC [11] of 6.25 to 50 µg/mL (≈ 17.9 to 143 µM) and an MIC [17] of 6.25 to 50 µg/mL (≈ 17.9 to 143 µM). The MIC [18] was 6.25 to 50 µg/mL (≈ 17.9 to 143 µM).
With `C[C@@H](c1ncncc1F)[C@](O)(Cn1cncn1)c1ccc(F)cc1F` [VORICONAZOLE] the MIC [9] was 0.015 to 0.5 µg/mL (≈ 0.0429 to 1.43 µM), the MIC [10] was 0.015 to 0.5 µg/mL (≈ 0.0429 to 1.43 µM) and the MIC [12] was 0.015 to 0.5 µg/mL (≈ 0.0429 to 1.43 µM). The MIC [13] was 0.015 to 0.5 µg/mL (≈ 0.0429 to 1.43 µM), the MIC [15] was 0.015 to 0.5 µg/mL (≈ 0.0429 to 1.43 µM) and the MIC [16] was 0.015 to 0.5 µg/mL (≈ 0.0429 to 1.43 µM). For the same compound, the MIC [24] was 0.015 to 0.5 µg/mL (≈ 0.0429 to 1.43 µM).
`Fc1cc2nc(SCc3ccc(-c4ccccc4-c4nnnn4C(c4ccccc4)(c4ccccc4)c4ccccc4)cc3)[nH]c2cc1Oc1ccc(Cl)cc1` showed an MIC [1] of 16 µg/mL (≈ 20.7 µM), an MIC [2] of 16 µg/mL (≈ 20.7 µM) and an MIC [3] of 16 µg/mL (≈ 20.7 µM). It also gave an MIC [4] of 16 µg/mL (≈ 20.7 µM).
`COc1ccc(-n2nnnc2C(=O)CN2CCN(c3nc4c(cc3F)c(=O)c(C(=O)O)cn4C3CC3)CC2)cc1` showed an MIC [25] of 6.25 to 100 µg/mL (≈ 11.4 to 182 µM), an MIC [26] of 6.25 to 100 µg/mL (≈ 11.4 to 182 µM) and an MIC [27] of 6.25 to 100 µg/mL (≈ 11.4 to 182 µM). It also gave an MIC [28] of 6.25 to 100 µg/mL (≈ 11.4 to 182 µM) and an MIC [20] of 6.25 to 100 µg/mL (≈ 11.4 to 182 µM).
Work on `O=C(O)c1cn(C2CC2)c2nc(N3CCN(CC(=O)c4nnnn4-c4ccccc4)CC3)c(F)cc2c1=O` yielded an MIC [25] of 6.25 to 100 µg/mL (≈ 12.1 to 193 µM), an MIC [26] of 6.25 to 100 µg/mL (≈ 12.1 to 193 µM) and an MIC [27] of 6.25 to 100 µg/mL (≈ 12.1 to 193 µM). The MIC [28] was 6.25 to 100 µg/mL (≈ 12.1 to 193 µM) and the MIC [20] was 6.25 to 100 µg/mL (≈ 12.1 to 193 µM).
In the case of `Cc1ccc(-n2nnnc2C(=O)CN2CCN(c3nc4c(cc3F)c(=O)c(C(=O)O)cn4C3CC3)CC2)cc1`, the MIC [25] is reported as 6.25 to 100 µg/mL (≈ 11.7 to 188 µM), the MIC [26] is reported as 6.25 to 100 µg/mL (≈ 11.7 to 188 µM) and the MIC [27] is reported as 6.25 to 100 µg/mL (≈ 11.7 to 188 µM). The MIC [28] was 6.25 to 100 µg/mL (≈ 11.7 to 188 µM) and the MIC [20] was 6.25 to 100 µg/mL (≈ 11.7 to 188 µM).
In the case of `CC[C@@H]([C@H](C)O)n1ncn(-c2ccc(N3CCN(c4ccc(OC[C@@H]5CO[C@@](Cn6cncn6)(c6ccc(F)cc6F)C5)cc4)CC3)cc2)c1=O` [POSACONAZOLE], the MIC [9] is reported as 0.12 to 1 µg/mL (≈ 0.171 to 1.43 µM), the MIC [10] is reported as 0.12 to 1 µg/mL (≈ 0.171 to 1.43 µM) and the MIC [12] is reported as 0.12 to 1 µg/mL (≈ 0.171 to 1.43 µM). For the same compound, the MIC [13] was 0.12 to 1 µg/mL (≈ 0.171 to 1.43 µM), the MIC [15] was 0.12 to 1 µg/mL (≈ 0.171 to 1.43 µM) and the MIC [16] was 0.12 to 1 µg/mL (≈ 0.171 to 1.43 µM). The MIC [24] was 0.12 to 1 µg/mL (≈ 0.171 to 1.43 µM).
Compound `O=C(O)c1cn(C2CC2)c2nc(N3CCN(CC(=O)c4nnnn4-c4ccc(F)cc4)CC3)c(F)cc2c1=O` has an MIC [25] of 6.25 to 100 µg/mL (≈ 11.6 to 186 µM), an MIC [26] of 6.25 µg/mL (≈ 11.6 µM) and an MIC [27] of 6.25 to 100 µg/mL (≈ 11.6 to 186 µM). It also gave an MIC [28] of 6.25 to 100 µg/mL (≈ 11.6 to 186 µM) and an MIC [20] of 6.25 to 100 µg/mL (≈ 11.6 to 186 µM).
In the case of `Cn1nnnc1SCC(=O)Nc1ccc(-c2nc3cc(Cl)c(Cl)cc3n2C)cc1`, the MIC [25] is reported as 25 to 50 µg/mL (≈ 55.8 to 112 µM), the MIC [29] is reported as 25 to 50 µg/mL (≈ 55.8 to 112 µM) and the MIC [30] is reported as 25 to 50 µg/mL (≈ 55.8 to 112 µM).
Compound `Fc1ccc(C2c3ccc4ccccc4c3Oc3[nH]c(=S)n4nnnc4c32)cc1` (configuration not stated) has an MIC [14] of 50 to 400 µg/mL (≈ 125 to 996 µM) and an MIC [21] of 50 to 400 µg/mL (≈ 125 to 996 µM).
